The results in this text go back to US20260103471A1, “CYCLIC UREA THIAZOLYL COMPOUNDS FOR TREATMENT OF HSV” (Assembly Biosciences, Inc., priority 2022, published 2026).

SMILES strings stand for the structures.

In this experiment the test system is HSV-2 G strain. Nature of the experiment: HSV-2 Antiviral Assay (Vero cells, cell viability). It counts as cell-based. The note with it: Human alphaherpesvirus 2, Vero, 120 h, Vero cells, 160 TCID50 HSV-2 G strain, 5 days, cell viability. The method, then:
Vero cells were cultured in Dulbecco's Modified Eagle Medium (DMVEM) supplemented with […] and 100 units/mL penicillin and streptomycin. The cells were passaged 2-3 times per week to maintain sub-confluent densities.
Vero cells were seeded into 96-well plates at a density of 1.0×10^4 cells per well and allowed to attach overnight. Following attachment, the media was replaced with 50 μL of infection medium (DMEM supplemented with 2% fetal bovine serum and 100 units/mL penicillin and streptomycin). A Tecan D300e digital dispenser was then used to add compounds to the culture using an 8-point 3-fold serial dilution format. The DMSO concentration was normalized to 0.5% for all treatments. Following compound addition, 50 μL of infection medium containing 160 TCID50 HSV-2 G strain was added to the cells and incubated at 37° C. for 5 days. After the incubation, 10 μL/well of WST-8 chromogenic reagent was added and the plates incubated at 37° C. for 3 hours. Following the incubation, cell viability was quantified by measuring the absorbance at 460 nm and 620 nm using a Tecan Infinite M1000 Pro plate reader.
As usually defined, the EC50 is the concentration giving half of the maximal effect. For `Cc1nc(N2CCCN(c3ccc(-c4ccccc4C#CC4CC4)cc3)C2=O)sc1S(N)(=O)=O` [Compound 220], the EC50 is less than 100 nM. The same measure for `COCc1c(F)cc(F)cc1-c1ccc(N2CCCN(c3nc(C)c(S(N)(=O)=O)s3)C2=O)cc1` [Compound 221]: less than 100 nM. Then `Cc1nc(N2CCCN(c3ccc(-c4cc(F)cc(C(F)F)c4)cc3)C2=O)sc1S(N)(=O)=O` [Compound 222], with less than 100 nM; and `CSc1ccc(F)cc1-c1ccc(N2CCCN(c3nc(C)c(S(N)(=O)=O)s3)C2=O)cc1` [Compound 223], with less than 100 nM. Take `Cc1nc(N2CCCN(c3ccc(-c4cc(F)ccc4C(C)(F)F)cc3)C2=O)sc1S(N)(=O)=O` [Compound 225]: the EC50 is less than 100 nM.

`COc1c(F)cc(C#N)cc1-c1ccc(N2CCCN(c3nc(C)c(S(N)(=O)=O)s3)C2=O)cc1` [Compound 226] yielded an EC50 of 100 to 1000 nM.

With `Cc1nc(N2CCCN(c3ccc(-c4cccc(-c5cscn5)c4)cc3)C2=O)sc1S(N)(=O)=O` [Compound 229], the EC50 was less than 100 nM. `Cc1nc(N2CCCN(c3ccc(-c4cc(-c5cncs5)ccc4F)cc3)C2=O)sc1S(N)(=O)=O` [Compound 230]: the EC50 lay within 100 to 1000 nM. As to `Cc1nc(N2CCCN(c3ccc(-c4cc(F)ccc4-c4cncs4)cc3)C2=O)sc1S(N)(=O)=O` [Compound 231], the EC50 was 100 to 1000 nM. The same measure for `Cc1nc(N2CCCN(c3ccc(-c4ncccc4C(F)(F)F)cc3)C2=O)sc1S(N)(=O)=O` [Compound 232]: 100 to 1000 nM; for `COc1ccncc1-c1ccc(N2CCCN(c3nc(C)c(S(N)(=O)=O)s3)C2=O)cc1` [Compound 233]: 100 to 1000 nM. The same measure for `Cc1nc(N2CCCN(c3ccc(-c4cc(Cl)c(Cl)cn4)cc3)C2=O)sc1S(N)(=O)=O` [Compound 234]: less than 100 nM; for `Cc1cc(Cl)c(F)c(-c2ccc(N3CCCN(c4nc(C)c(S(N)(=O)=O)s4)C3=O)cc2)n1` [Compound 236]: less than 100 nM. Then `Cc1cc(F)cc(-c2ccc(N3CCCN(c4nc(C)c(S(N)(=O)=O)s4)C3=O)cc2)n1` [Compound 237], with less than 100 nM. `Cc1cc(O)cc(-c2ccc(N3CCCN(c4nc(C)c(S(N)(=O)=O)s4)C3=O)cc2)n1` [Compound 238] registered an EC50 of 1000 to 5000 nM. Then `COc1ncc(F)cc1-c1ccc(N2CCCN(c3nc(C)c(S(N)(=O)=O)s3)C2=O)cc1` [Compound 239], with less than 100 nM; and `Cc1nc(N2CCCN(c3ccc(-c4cc(C(F)(F)F)ccn4)cc3)C2=O)sc1S(N)(=O)=O` [Compound 240], with 100 to 1000 nM; and `Cc1nc(N2CCCN(c3ccc(-c4cc(C(C)(F)F)cs4)cc3)C2=O)sc1S(N)(=O)=O` [Compound 241], with 1000 to 5000 nM. Then `Cc1nc(N2CCCN(c3ccc(-c4cc(C(F)(F)F)cc5nsnc45)cc3)C2=O)sc1S(N)(=O)=O` [Compound 244], with less than 100 nM; and `Cc1nc(N2CCCN(c3ccc(-c4cc(C(F)(F)F)cc5c4ccn5C)cc3)C2=O)sc1S(N)(=O)=O` [Compound 246], with less than 100 nM; and `Cc1nc(N2CCCN(c3ccc(-c4cccc5c(C)cnn45)cc3)C2=O)sc1S(N)(=O)=O` [Compound 247], with less than 100 nM. As to `Cc1nc(N2CCCN(c3ccc(-c4cccc5ccnn45)cc3)C2=O)sc1S(N)(=O)=O` [Compound 248], the EC50 was less than 100 nM. On to `Cc1nc(N2CCCN(c3ccc(-c4cccc5c4OCCO5)cc3)C2=O)sc1S(N)(=O)=O` [Compound 249], for which the EC50 is less than 100 nM. The compound `Cc1nc(N2CCCN(c3ccc(-c4cccc5c4cc(C)n5C)cc3)C2=O)sc1S(N)(=O)=O` [Compound 250] yielded an EC50 of less than 100 nM.

The compound `COc1cc(-c2ccc(N3CCCN(c4nc(C)c(S(N)(=O)=O)s4)C3=O)cc2)c2scnc2c1` [Compound 252] gave an EC50 of less than 100 nM.

Turning to `Cc1nc(N2CCCN(c3ccc(-c4cc(F)cc5nc(C6CC6)sc45)cc3)C2=O)sc1S(N)(=O)=O` [Compound 253], the EC50 is less than 100 nM.

`Cc1nc(N2CCCN(c3ccc(-c4cc(F)cc5cc(C(N)=O)sc45)cc3)C2=O)sc1S(N)(=O)=O` [Compound 254] yielded an EC50 of 100 to 1000 nM. As for `Cc1nc2cc(F)cc(-c3ccc(N4CCCN(c5nc(C)c(S(N)(=O)=O)s5)C4=O)cc3)c2s1` [Compound 256], the EC50 is less than 100 nM. `Cc1nc(N2CCCN(c3ccc(-c4cc(F)cc5nc(C(F)(F)F)sc45)cc3)C2=O)sc1S(N)(=O)=O` [Compound 257] gave an EC50 of less than 100 nM. Then `Cc1nc(N2CCCN(c3ccc(-c4cccc5cnsc45)cc3)C2=O)sc1S(N)(=O)=O` [Compound 258], with less than 100 nM; and `Cc1nc(N2CCCN(c3ccc(-c4nccc5ncsc45)cc3)C2=O)sc1S(N)(=O)=O` [Compound 260], with less than 100 nM; and `Cc1nc(N2CCCN(c3ccc(-c4nccc5c4cnn5C)cc3)C2=O)sc1S(N)(=O)=O` [Compound 261], with 100 to 1000 nM.

`Cc1nc(N2CCCN(c3ccc(-c4nccn5cncc45)cc3)C2=O)sc1S(N)(=O)=O` [Compound 262] registered an EC50 of 1000 to 5000 nM. `Cc1nc(N2CCCN(c3ccc(-c4cccn5nncc45)cc3)C2=O)sc1S(N)(=O)=O` [Compound 263] yielded an EC50 of 100 to 1000 nM. The same measure for `Cc1nc(N2CCCN(c3ccc(-c4cccc5c4C(F)(F)CO5)cc3)C2=O)sc1S(N)(=O)=O` [Compound 264]: less than 100 nM; for `Cc1nc(N2CCCN(c3ccc(-c4cccc5c4C(F)(F)CCO5)cc3)C2=O)sc1S(N)(=O)=O` [Compound 266]: 100 to 1000 nM; for `Cc1nc(N2CCCN(c3ccc(-c4cccc5c4OCCC5(F)F)cc3)C2=O)sc1S(N)(=O)=O` [Compound 267]: 100 to 1000 nM. The same measure for `Cc1nc(N2CCCN(c3ccc(-c4cccc5cc(N)ncc45)cc3)C2=O)sc1S(N)(=O)=O` [Compound 268]: less than 100 nM.

Turning to `Cc1nc(N2CCCN(c3ccc(-c4cncc5ncsc45)cc3)C2=O)sc1S(N)(=O)=O` [Compound 269], the EC50 was 100 to 1000 nM.

With `Cc1nc(N2CCCN(c3ccc(-c4nccc5ccsc45)cc3)C2=O)sc1S(N)(=O)=O` [Compound 270], the EC50 is less than 100 nM. The same measure for `Cc1nc(N2CCCN(c3ccc(-c4cncc5nn(C)cc45)cc3)C2=O)sc1S(N)(=O)=O` [Compound 271]: 1000 to 5000 nM. For the compound `Cc1nc(N2CCCN(c3ccc(-c4ccnc5ncsc45)cc3)C2=O)sc1S(N)(=O)=O` [Compound 272], the EC50 was 1000 to 5000 nM. For the compound `Cc1nc(N2CCCN(c3ccc(-c4cc(C(C)(F)F)cc5c4OCO5)cc3)C2=O)sc1S(N)(=O)=O` [Compound 273], the concentration for a half-maximal effect (EC50) lay in the range of 100 to 1000 nM. The same measure for `Cc1nc(N2CCCN(c3ccc(-c4cccc5c(C)csc45)cc3)C2=O)sc1S(N)(=O)=O` [Compound 275]: less than 100 nM; for `Cc1nc(N2CCCN(c3ccc(-c4cc(F)cc5cc(C#N)sc45)cc3)C2=O)sc1S(N)(=O)=O` [Compound 276]: less than 100 nM.

In turn, `Cc1nc(N2CCCN(c3ccc(-c4cc(C#N)cc5ncsc45)cc3)C2=O)sc1S(N)(=O)=O` [Compound 278] displayed an EC50 of 100 to 1000 nM. `Cc1nc(N2CCCN(c3ccc(-c4cc(F)cc5nc(C#N)sc45)cc3)C2=O)sc1S(N)(=O)=O` [Compound 279] gave an EC50 of 100 to 1000 nM. For the compound `Cc1nc(N2CCCN(c3ccc(-c4cc(F)cc5c(C)c(C#N)sc45)cc3)C2=O)sc1S(N)(=O)=O` [Compound 280], the EC50 was in the range of 1000 to 5000 nM.
